The text below walks through data of patent US5677282A (Proscript, Inc., priority 1995, dated 1997).

For experiment [1], the system named is bovine cartilage explants. The experiment in a line: Bovine cartilage explant assay (35S-GAG release, rhIL-1α stimulated). The format is cell-based. The note with it: rhIL-1α 5 ng/mL, 3-4 days culture. The text has this:
A tissue culture assay was used to measure the ability of the compounds of the present invention to slow the degradation of the extracellular matrix by metalloproteinases. This assay measured the amount of ^35 S-glycosaminoglycan (^35 S-GAG) released from labeled bovine cartilage explants.
Knee joints from a 1 to 3 week old calf were obtained immediately after sacrifice from the Abattoir and then transported on ice. The intact joints were washed well with tap water and soaked in 50% (v/v) Povidine iodine solution, obtained from Burre National, Inc., Baltimore, Md. All subsequent steps were performed in a laminar flow tissue culture hood using standard sterile technique. The joint was immobilized in a shank holder and the joint capsule was cut open to expose the articular cartilage. Cartilage explant plugs, approximately 15 mg wet weight, were removed from the flat articulating surfaces in the lower-most region of the knee joint using a sterile steel cork-borer and collected in a 250 mL roller bottle containing about 100 mL fresh Delbecco's minimum essential medium (DMEM), obtained from Gibco BRC, Life Technologies, Gaithersburg, Md., containing 4.5 g/l (D)-glucose and (L)-glutamine, without sodium pyruvate. The fresh media also contained enough Hepes buffer and sodium bicarbonate such that the pH was about 7.4. The media was then further supplemented just before use with 100 units Penicillin, 100 μg Streptomycin, and 50 μg (L)-ascorbic acid per mL of medium.
Once collected, the explant plugs were washed four times with 50 mL fresh DMEM. The plugs were then placed in the incubator for a minimum of 1 hour to equilibrate, before proceeding to make disks from the articulating surface of each plug. A 1 mm thick disk was sliced from individual plugs from the end that was the articulating surface of the joint. The plug was held steady in the sterile template (4 mm diameter×1.5 mm deep) using sterile forceps. A scalpel blade was used to carefully slice off the disk. Only the superficial articulating surface responded well in culture.
Individual disks obtained were transferred to a tissue culture flask containing about 100 mL fresh media. The flask containing the disks was placed in an incubator at 37° C. (with 5% CO2, 95% air) and allowed to equilibrate overnight and at least one additional day before labeling. When ready to label, the old media was replaced with 50 mL fresh media containing about 500 μCi ^35 S-Sodium Sulfate. The plugs were labeled in bulk for about 48 hours. The next morning, the "hot" media was removed and replaced with fresh "cold" media. The disks were again allowed to equilibrate overnight before being used for actual experiments.
The media in which the disks were stored was changed immediately prior to performing the assay. The disks were then returned to the incubator until the test media and the two control media had been prepared. The test media consisted of the desired concentration of a compound being tested for its ability to inhibit extracellular matrix degradation and concomitant recombinant human Interleukin rhIL-1α (5 ng/mL) in fresh DMEM solution. The control media were identical to the test media, except that the first control media lacked rhIL-1α and the second control media lacked the test compound. 250 μL of each of the test and control media were transferred to separate 96-well TC plates. Flamed forceps were used to transfer a disk from the incubator to each 96-well TC plates that had been filled with either the test media or one of the two control media.
The TC plates were then placed in the incubator and cultured for 3-4 days (initial incubation with rhIL-1α alpha takes at least 3 days to stimulate endogenous metalloproteinases). A 50 μL aliquot of media from each TC plate was saved and counted. The rest of the media was removed with a suction device.
The cartilage disks from each TC plate were also saved for counting. […]

Experiment [2] addresses stromelysin (Homo sapiens, UniProt P08254). As to the kind of experiment: Assay of stromelysin inhibition activity (fluorogenic coumarin peptide substrate). The format is biochemical. As to conditions: trypsin-activated stromelysin 2 nM, H-150 buffer pH 7.4, room temperature; read-out: Ki(app). An outline of the steps: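 Human stromelysin trypsin-activated, then used at 2 nM in HEPES/NaCl/CaCl2 buffer pH 7.4 at room temperature with coumarin peptide substrate. Initial hydrolysis rate followed by fluorescence (ex 328/em 393 nm); inhibitor added stepwise to 30-70% inhibition, Ki derived assuming simple competitive inhibition with substrate far below Km.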

Experiment [3] has as its target 92 kD gelatinase (Homo sapiens, UniProt P14780). As to the kind of experiment: Assay of 92 KD gelatinase inhibition activity. The format is biochemical. As to conditions: 92KD gelatinase 25 pM, H-150 buffer pH 7.4; read-out: Ki(app). The method, then: H-150 buffer, pH 7.4, was prepared by CaCl2 H2 O (1.47 grams), NaCl (8.77 grams) and N-[2-hydroxyethyl]piperazine-N'-[2-ethanesulfonic acid](23.83 grams) to distilled and deionized water and then bring the final volume of the solution to 1 liter. A reaction mixture having a final volume of 500 μL was prepared with H-150 buffer, 200 μgrams of Pro-92KD gelatinase (Strongin et al., J. Biol. Chem., 268:14033 (1993); Goldberg, et al., J. Biol. Chem., 267:4583 (1992); Okada et al., J. Biol. Chem. 267:21712 (1992)), p-aminophenyl mercuric acetate (Sigma Chemical Co., St. Louis, Mo.) (1 mM) and Brij (dodexylpoly(oxyethyleneglycolether))(0,008% w/v). The reaction mixture wsa then incubated for 24 hours at 37° C.
The reaction mixture was applied to a NAP-5 column (G-25 SEPHADEX™, Pharmacia). Fractions containing 72KD gelatinase were identified using 12% polyacrylamide gel electrophoresis and concentrated to about 100-200 μliters by centrifigation (5000 g, 1 hour).
A solution containing H-150 buffer (2.0 mL), 92KD gelatinase (25 pM) and ethylphenolpoly(ethylene-glycolether)n (Boerhringer Mannheim) (4.0 μM) was prepared in a stirred cuvette. Coumarin peptide substrate (4 μL of a 5 mM solution in dimethyl sulfoxide) was added to the reaction mixture. The rate of hydrolysis was determined for about 100-200 seconds by measuring the fluorescence of the reaction at ex328 nanometers and […] using a Hitachi F-2000 Fluorescence Spectrophotometer.
(§1) 2 μL of a 10 mM inhibitor stock solution (in dimethyl sulfoxide) is added and the reduction in the rate of hydrolysis is determined. Additional 2 μL aliquots of the stock inhibitor solution is added until a 30% to 70% inhibition is observed. Ki is calculated on the assumption of simple competitive inhibition and that the substrate concentration is much less than Km.

The target of experiment [4] is human neutrophil collagenase (Homo sapiens, UniProt P22894). As to the kind of experiment: Assay of human neutrophil collagenase inhibition activity. Format: biochemical. As to conditions: human neutrophil collagenase 2 nM, H-150 buffer pH 7.4; read-out: Ki(app). The protocol:
H-150 buffer, pH 7.4, was prepared by adding CaCl2 H2 O (1.47 grams), NaCl (8.77 grams) and N-[2-hydroxyethyl]piperazine-N'-[2-ethanesulfonic acid] (23.83 grams) to distilled and deionized water and then bringing the final volume of the solution to 1 liter.
A reaction mixture with a final volume of 2.0 mL was prepared from H-150 buffer, human neutrophil collagenase (Schnierer, et al., Blochem. Biophys. Res. Comm., 191:319 (1993); Knight et al., Federation of Europena Biochemical Societies 296:263 (1992)) (2 nM). Coumarin peptide substrate (4 μL of a 5 mM solution in dimethyl sulfoxide) was added to the reaction mixture. The rate of hydrolysis was determined for about 100-200 seconds by measuring the fluorescence of the reaction at ex328 nanometers and […] using a Hitachi F-2000 Fluorescence Spectrophotometer.
as §1

The mark [5] stands for this setting: Bos taurus, 25 μM compound, read-out: % inhibition (concentration [μM]) of cartilage degradation.

stromelysin, sequence (P08254 100-477): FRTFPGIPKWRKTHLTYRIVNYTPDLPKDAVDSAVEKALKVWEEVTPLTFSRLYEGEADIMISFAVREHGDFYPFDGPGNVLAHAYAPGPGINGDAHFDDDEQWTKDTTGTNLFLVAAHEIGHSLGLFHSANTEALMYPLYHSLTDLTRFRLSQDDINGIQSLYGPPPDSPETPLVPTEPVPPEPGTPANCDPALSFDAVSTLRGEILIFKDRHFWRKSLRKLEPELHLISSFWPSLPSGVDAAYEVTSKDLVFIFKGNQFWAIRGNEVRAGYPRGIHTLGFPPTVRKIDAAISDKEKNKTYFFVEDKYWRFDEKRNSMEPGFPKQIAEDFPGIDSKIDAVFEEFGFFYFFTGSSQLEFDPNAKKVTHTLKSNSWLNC
92 kD gelatinase, sequence (P14780 107-707): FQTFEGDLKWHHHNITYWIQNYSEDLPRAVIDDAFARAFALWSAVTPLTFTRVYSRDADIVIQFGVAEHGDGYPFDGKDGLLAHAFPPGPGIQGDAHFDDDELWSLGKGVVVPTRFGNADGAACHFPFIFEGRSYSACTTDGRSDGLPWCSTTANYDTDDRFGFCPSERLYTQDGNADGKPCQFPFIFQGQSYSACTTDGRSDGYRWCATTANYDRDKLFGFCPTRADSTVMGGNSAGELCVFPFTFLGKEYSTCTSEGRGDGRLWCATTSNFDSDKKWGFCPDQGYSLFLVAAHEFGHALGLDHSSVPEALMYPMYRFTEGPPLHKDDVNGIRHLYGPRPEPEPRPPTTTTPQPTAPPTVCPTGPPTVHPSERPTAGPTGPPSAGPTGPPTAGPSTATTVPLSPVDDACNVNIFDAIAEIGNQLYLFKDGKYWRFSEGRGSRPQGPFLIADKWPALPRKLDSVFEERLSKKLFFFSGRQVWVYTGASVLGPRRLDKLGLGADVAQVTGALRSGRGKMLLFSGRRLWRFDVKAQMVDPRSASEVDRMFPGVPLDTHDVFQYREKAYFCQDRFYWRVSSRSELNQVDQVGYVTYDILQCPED
human neutrophil collagenase, sequence (P22894 101-467): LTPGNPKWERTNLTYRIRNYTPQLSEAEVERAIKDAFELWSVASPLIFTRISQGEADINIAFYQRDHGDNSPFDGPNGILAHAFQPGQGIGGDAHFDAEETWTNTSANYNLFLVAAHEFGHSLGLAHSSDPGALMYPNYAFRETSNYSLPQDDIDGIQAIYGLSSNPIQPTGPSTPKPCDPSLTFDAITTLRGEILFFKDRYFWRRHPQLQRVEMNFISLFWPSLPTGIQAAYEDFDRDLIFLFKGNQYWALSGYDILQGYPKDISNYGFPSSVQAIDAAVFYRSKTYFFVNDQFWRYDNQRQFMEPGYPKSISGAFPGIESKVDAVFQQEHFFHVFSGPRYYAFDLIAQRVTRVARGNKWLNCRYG

Regarding `CC(C)[C@H](NC(=O)OCC1c2ccccc2-c2ccccc21)C(=O)Nc1n[nH]c(=S)s1` [5-(N-(9-fluorenylmethoxycarbonyl)valylamino)-1,3,4-thiadiazole-2-thione], the inhibition at 20 µM in experiment [1] (Bos taurus, 20 μM compound, read-out: % inhibition (concentration [μM]) of cartilage degradation) was 42%. Also, in experiment [2], the Ki was found to be 0.128 µM.

For `O=C(N[C@@H](CCc1ccccc1)C(=O)Nc1n[nH]c(=S)s1)OCC1c2ccccc2-c2ccccc21` [5-(N-(9-flourenylmethoxycarbonyl)homophenylalanylamino)-1,3,4-thiadiazole-2-thione], the values for the Ki in experiment [3] and in experiment [2] were 0.00035 µM and 0.436 µM, respectively. For the same compound, in experiment [1] (50 μM compound), the “% inhibition (concentration [μM]) of cartilage degradation” value (“% inhibition (concentration [μM])” below) is listed as 65%.

Consider `CC(C)[C@H](NC(=O)[C@H](CCC(=O)NC(c1ccccc1)(c1ccccc1)c1ccccc1)NC(=O)OCc1ccccc1)C(=O)Nc1n[nH]c(=S)s1` [5-(N-benzyloxycarbonyl-(7--N-trityl)glutamyl-valyamino-1,3,4-thiadiazole-2-thione], for which the “% inhibition (concentration [μM])” value in experiment [1] (25 μM compound) is recorded as 56%. Besides, the Ki in experiment [2] came to 0.091 µM.

Turning to `CC(C)[C@H](NC(=O)Cc1ccc(-c2ccccc2)cc1)C(=O)Nc1n[nH]c(=S)s1` [5-(N-((4-phenyl)phenylacetyl)valylamino)-1,3,4-thiadiazole-2-thione], the inhibition at 25 µM in experiment [1] (setting [5]) stood at 47%. Besides, the Ki in experiment [2] came to 0.1 µM.

Consider `CC(C)[C@H](NC(=O)[C@H](Cc1ccccc1)NC(=O)Cc1ccc(-c2ccccc2)cc1)C(=O)Nc1n[nH]c(=S)s1` [5-(N-(4-phenyl)phenylacetyl-phenylalanyl-valylamino)-1,3,4-thiadiazole-2-thione], for which the “% inhibition (concentration [μM])” value in experiment [1] (25 μM compound) worked out at 37%. Also, the Ki in experiment [2] was found to be 0.135 µM.

Take `CC(C)[C@H](NC(=O)[C@H](Cc1ccc(OCc2ccccc2)cc1)NC(=O)OCc1ccccc1)C(=O)Nc1n[nH]c(=S)s1` [5-(N-benzyloxycarbnyl-(O-benzyl)tyrosyl-valylamino)-1,3,4-thiadiazole-2-thione]: the Ki is 0.00215 µM in experiment [4] and 0.08 µM in experiment [2]. Besides, in experiment [1] (50 μM compound), the “% inhibition (concentration [μM])” value is reported as 59%.

For `O=C(N[C@@H](Cc1c[nH]c2ccccc12)C(=O)N[C@@H](Cc1ccccc1)C(=O)Nc1n[nH]c(=S)s1)OCc1ccccc1` [5-(N-benzyloxycarbonyl-tryptoyl-phenylalanylamino)-1,3,4-thiadiazole-2-thione], in experiment [1] (50 μM compound), the “% inhibition (concentration [μM])” value was found to be 35%. Besides, the Ki in experiment [2] was 0.225 µM.

Take `CC(C)[C@H](NC(=O)[C@H](CCC(=O)OCc1ccccc1)NC(=O)OCc1ccccc1)C(=O)Nc1n[nH]c(=S)s1` [5-(N-benzyloxycarbonyl-(O-benzyl)glutamoyl-valylamino)-1,3,4-thiadiazole-2-thione]: in experiment [1] (25 μM compound), the “% inhibition (concentration [μM])” value is listed as 33%. Further, in experiment [2], the Ki amounted to 0.146 µM.

For `O=C(N[C@H](CCc1ccccc1)C(=O)Nc1n[nH]c(=S)s1)OCc1ccccc1` [5-(N-benzyloxycarbonyl-D-homophenylalanylamino)-1,3,4-thiadiazole-2-thione], the inhibition at 25 µM in experiment [1] (setting [5]) worked out at 22%.
